Tested on: SU-DHL-4 cells
Experiment: Inhibitory effect on cell viability in SU-DHL-4 cell line (Test Example 1)
Assay type: cell-based, human
Settings: Homo sapiens; SU-DHL-4 cells, 72 hours, Cell Counting Kit-8; concentration showing 90% inhibition of cell viability; read-out: SU-DHL-4 Cell Viability Inhibition Rate IC90
Method: SU-DHL-4 cells (Code No. ACC 495, Deutsche Sammlung von Mikroorganismen and Zellkulturen GmbH; DSMZ) were cultured at 37° C. using a carbon dioxide incubator (95% air, 5% CO2) in RPMI1640 medium (Code No. 11875-093, Thermo Fisher Scientific) in which inactivated fetal bovine serum (FBS: Code No. 10099-148, Thermo Fisher Scientific) in an amount to give a final concentration of 10 vol % and penicillin/streptomycin solution (PS: […] The cells were passaged twice a week at a volume of 20-40 mL so as to maintain a cell concentration of 1×10^6 cells/mL or less. […] After seeding, the cells were precultured at 37° C. in a carbon dioxide gas incubator for 18 to 25 hours. […] At this time, the final concentration of DMSO was adjusted to be 0.1 vol %. After adding the test compound, the cells were cultured at 37° C. in a carbon dioxide gas incubator for 72 hours. Next, 0.020 mL of Cell Counting Kit-8 (Code No. CK04, DOJINDO) solution diluted 2-fold or 4-fold with phosphate buffered saline (PBS) was added to each well. Color reaction was carried out in a carbon dioxide gas incubator at 37° C. for 2 to 3 hours, and the absorbance at a wavelength of 450 nm was measured using SpectraMax 340PC (Molecular Devices). […] Absorbance of a well containing test compound • B: Absorbance of a well without addition of cells • C: Absorbance of a well without addition of test compound

| SMILES | IC90 |
| --- | --- |
| CCC(=O)N1c2ccccc2[C@H](Nc2ccc(NC(=O)CCCC(=O)NC3CCN(Cc4ccccc4-c4cn(C)c(=O)cc4OC)CC3)cc2)C[C@@H]1C [Compound 16h, N^1-(1-(2-(4-Methoxy-1-methyl-6-oxo-1,6-dihydropyridin-3-yl)benzyl)piperidin-4-yl)-N5-(4-(((2S,4R)-2-methyl-1-propionyl-1,2,3,4-tetrahydroquinolin-4-yl)amino)phenyl)glutaramide] | 68.4 nM |
| CCC(=O)N1c2ccccc2[C@H](Nc2ccc(NC(=O)CCCC(=O)Nc3ccc(Oc4ccccc4-c4cn(C)c(=O)cc4OC)cc3)cc2)C[C@@H]1C [Compound 16k, N^1-(4-(2-(4-Methoxy-1-methyl-6-oxo-1,6-dihydropyridin-3-yl)phenoxy)phenyl)-N5-(4-(((2S,4R)-2-methyl-1-propionyl-1,2,3,4-tetrahydroquinolin-4-yl)amino)phenyl)glutaramide] | 0.9 nM |
| CCC(=O)N1c2ccccc2[C@H](Nc2ccc(-c3nnc(CNC(=O)N4CCN(Cc5cc(O)cc(-c6c(C)noc6C)c5)CC4)o3)cc2)C[C@@H]1C [Compound 16c, 4-(3-(3,5-Dimethylisoxazol-4-yl)-5-hydroxybenzyl)-N-((5-(4-(((2S,4R)-2-methyl-1-propionyl-1,2,3,4-tetrahydroquinolin-4-yl)amino)phenyl)-1,3,4-oxadiazol-2-yl)methyl)piperazine-1-carboxamide] | 0.28 nM |
| CCC(=O)N1c2ccccc2[C@H](Nc2ccc(NC(=O)CCCC(=O)Nc3ccc(OCCN4CCN(C)C(=O)[C@H]4C)cc3)cc2)C[C@@H]1C [Compound 16e, N^1-(4-(2-((R)-2,4-Dimethyl-3-oxopiperazin-1-yl)ethoxy)phenyl)-N5-(4-(((2S,4R)-2-methyl-1-propionyl-1,2,3,4-tetrahydroquinolin-4-yl)amino)phenyl)glutaramide] | 5.97 nM |
| CCC(=O)N1c2ccccc2[C@H](Nc2ccc(NC(=O)CCCC(=O)NC34CC(NCc5cc(O)cc(-c6c(C)noc6C)c5)(C3)C4)cc2)C[C@@H]1C [Compound 16i, N^1-(3-((3-(3,5-Dimethylisoxazol-4-yl)-5-hydroxybenzyl)amino)bicyclo[1.1.1]pentan-1-yl)-N5-(4-(((2S,4R)-2-methyl-1-propionyl-1,2,3,4-tetrahydroquinolin-4-yl)amino)phenyl)glutaramide] | 7.84 nM |

Same assay, conditions: SU-DHL-4 cells, 72 hours, Cell Counting Kit-8; concentration showing 90% inhibition of cell viability; read-out: SU-DHL-4 Cell Viability Inhibition Rate IC90

| SMILES | IC90 |
| --- | --- |
| CCNC(=O)C[C@@H]1N=C(c2ccc(C(=O)NCCCNC(=O)c3ccc(N[C@@H]4C[C@H](C)N(C(=O)CC)c5ccccc54)cc3)cc2)c2c(sc(C)c2C)-n2c(C)nnc21 [Compound 13e, 4-((S)-6-(2-(Ethylamino)-2-oxoethyl)-2,3,9-trimethyl-6H-thieno[3,2-f][1,2,4]triazolo[4,3-a][1,4]diazepin-4-yl)-N-(3-(4-(((2S,4R)-2-methyl-1-propionyl-1,2,3,4-tetrahydroquinolin-4-yl)amino)benzamide)propyl)benzamide] | 3.33 nM |
| CCC(=O)N1c2ccccc2[C@H](Nc2ccc(NC(=O)NCCNC(=O)C3CCC(N[C@@H]4C[C@H](C)N(C(=O)CC)c5ccccc54)CC3)cc2)C[C@@H]1C (relative stereo) [Compound 8n, (1R,4r)-4-(((2S*,4R*)-2-Methyl-1-propionyl-1,2,3,4-tetrahydroquinolin-4-yl)amino)-N-(2-(3-(4-(((2S,4R)-2-methyl-1-propionyl-1,2,3,4-tetrahydroquinolin-4-yl)amino)phenyl)ureido)ethyl)cyclohexane-1-carboxamide] | 1.17 nM |
| CCC(=O)N1c2ccccc2[C@H](Nc2ccc(Cn3cc(C(=O)N[C@H]4CC[C@H](N[C@@H]5C[C@H](C)N(C(=O)CC)c6ccccc65)CC4)nn3)cc2)C[C@@H]1C [Compound 8f, 1-(4-(((2S,4R)-2-Methyl-1-propionyl-1,2,3,4-tetrahydroquinolin-4-yl)amino)benzyl)-N-((1R,4R)-4-(((2S,4R)-2-methyl-1-propionyl-1,2,3,4-tetrahydroquinolin-4-yl)amino)cyclohexyl)-1H-1,2,3-triazole-4-carboxamide] | 1.14 nM |
| CCC(=O)N1c2ccccc2[C@H](Nc2ccc(C(=O)NC3CN(C(=O)C4CCC(N[C@@H]5C[C@H](C)N(C(=O)CC)c6ccccc65)CC4)C3)cc2)C[C@@H]1C (relative stereo) [Compound 7n, 4-(((2S,4R)-2-Methyl-1-propionyl-1,2,3,4-tetrahydroquinolin-4-yl)amino)-N-(1-((1R,4R)-4-(((2S*,4R*)-2-methyl-1-propionyl-1,2,3,4-tetrahydroquinolin-4-yl)amino)cyclohexane-1-carbonyl)azetidin-3-yl)benzamide] | 13.9 nM |
| Cc1sc2c(c1C)C(c1ccc(NC(=O)CNC(=O)c3ccc(C4=N[C@@H](CC(=O)OC(C)(C)C)c5nnc(C)n5-c5sc(C)c(C)c54)cc3)cc1)=N[C@@H](CC(=O)OC(C)(C)C)c1nnc(C)n1-2 [Compound 2b, tert-Butyl 2-[(S)-4-{4-[2-(4-{(S)-6-[2-(tert-butoxy)-2-oxoethyl]-2,3,9-trimethyl-6H-thieno[3,2-f][1,2,4]triazolo[4,3-a][1,4]diazepin-4-yl}benzamide)acetamide]phenyl}-2,3,9-trimethyl-6H-thieno[3,2-f][1,2,4]triazolo[4,3-a][1,4]diazepin-6-yl]acetate] | 1.52 nM |
| CCC(=O)N1c2ccccc2[C@H](Nc2ccc(-c3cnc4n3CCN(C(=O)C3CCC(N[C@@H]5C[C@H](C)N(C(=O)CC)c6ccccc65)CC3)C4)cc2)C[C@@H]1C (relative stereo) [Compound 8h, 1-((2S*,4R*)-2-methyl-4-(((1R,4R)-4-(3-(4-(((2S,4R)-2-methyl-1-propionyl-1,2,3,4-tetrahydroquinolin-4-yl)amino)phenyl)-5,6,7,8-tetrahydroimidazo[1,2-a]pyrazine-7-carbonyl)cyclohexyl)amino)-3,4-dihydroquinolin-1(2H)-yl)propan-1-one] | 1.14 nM |
| CCC(=O)N1c2ccccc2[C@H](Nc2ccc(SCCNC(=O)C3CCC(N[C@@H]4C[C@H](C)N(C(=O)CC)c5ccccc54)CC3)cc2)C[C@@H]1C (relative stereo) [Compound 8i, (1R,4R)-4-(((2S*,4R*)-2-Methyl-1-propionyl-1,2,3,4-tetrahydroquinolin-4-yl)amino)-N-(2-((4-(((2S,4R)-2-methyl-1-propionyl-1,2,3,4-tetrahydroquinolin-4-yl)amino)phenyl)thio)ethyl)cyclohexane-1-carboxamide] | 2.69 nM |
| CCC(=O)N1c2ccccc2[C@H](Nc2ccc(C(=O)c3cnc4n3CCN(C(=O)C3CCC(N[C@@H]5C[C@H](C)N(C(=O)CC)c6ccccc65)CC3)C4)cc2)C[C@@H]1C (relative stereo) [Compound 7i, 1-((2S*,4R*)-2-Methyl-4-(((1r,4R)-4-(3-(4-(((2S,4R)-2-methyl-1-propionyl-1,2,3,4-tetrahydroquinolin-4-yl)amino)benzoyl)-5,6,7,8-tetrahydroimidazo[1,2-a]pyrazine-7-carbonyl)cyclohexyl)amino)-3,4-dihydroquinolin-1(2H)-yl)propan-1-one] | 0.33 nM |
| CCC(=O)N1c2ccccc2[C@H](Nc2ccc(C(=O)NC3CCN(C(=O)c4ccc(C5=N[C@@H](CC(=O)OC(C)(C)C)c6nnc(C)n6-c6sc(C)c(C)c65)cc4)CC3)cc2)C[C@@H]1C [Compound 13j, tert-Butyl 2-((S)-2,3,9-trimethyl-4-(4-(4-(4-(((2S,4R)-2-methyl-1-propionyl-1,2,3,4-tetrahydroquinolin-4-yl)amino)benzamide)piperidine-1-carbonyl)phenyl)-6H-thieno[3,2-f][1,2,4]triazolo[4,3-a][1,4]diazepin-6-yl)acetate] | 0.31 nM |
| CCC(=O)N1c2ccccc2[C@H](Nc2ccc(NC(=O)c3coc(N[C@H]4CC[C@H](N[C@@H]5C[C@H](C)N(C(=O)CC)c6ccccc65)CC4)n3)cc2)C[C@@H]1C [Compound 7g, 2-(((1R,4R)-4-(((2S,4R)-2-Methyl-1-propionyl-1,2,3,4-tetrahydroquinolin-4-yl)amino)cyclohexyl)amino)-N-(4-(((2S,4R)-2-methyl-1-propionyl-1,2,3,4-tetrahydroquinolin-4-yl)amino)phenyl)oxazole-4-carboxamide] | 7.56 nM |
| CCC(=O)N1c2ccccc2[C@H](Nc2ccc(NC(=O)C3CCN(C(=O)C4CCC(N[C@@H]5C[C@H](C)N(C(=O)CC)c6ccccc65)CC4)CC3)cc2)C[C@@H]1C (relative stereo) [Compound 8q, 1-((1R,4r)-4-(((2S*,4R*)-2-Methyl-1-propionyl-1,2,3,4-tetrahydroquinolin-4-yl)amino)cyclohexane-1-carbonyl)-N-(4-(((2S,4R)-2-methyl-1-propionyl-1,2,3,4-tetrahydroquinolin-4-yl)amino)phenyl)piperidine-4-carboxamide] | 19 nM |
| CCC(=O)N1c2ccccc2[C@H](Nc2ccc(NC(=O)COC(=O)N[C@H]3CC[C@H](N[C@@H]4C[C@H](C)N(C(=O)CC)c5ccccc54)CC3)cc2)C[C@@H]1C [Compound 7f, 2-((4-(((2S,4R)-2-Methyl-1-propionyl-1,2,3,4-tetrahydroquinolin-4-yl)amino)phenyl)amino)-2-oxoethyl ((1R,4R)-4-(((2S,4R)-2-methyl-1-propionyl-1,2,3,4-tetrahydroquinolin-4-yl)amino)cyclohexyl)carbamate] | 3.2 nM |
